ChEMBL document CHEMBL1909046, “DrugMatrix in vitro pharmacology data”

Legend:
D(4) dopamine receptor = molecular target: T1, D(4) dopamine receptor (Homo sapiens, UniProt P21917); assay: DRUGMATRIX: Dopamine D4.2 radioligand binding (ligand: [3H] Spiperone); format: cell membranes, CHO-K1, Membrane; settings: cho-k1; Not Active = under 50% inhibition at 10 µM
T1 sequence (P21917 whole entry): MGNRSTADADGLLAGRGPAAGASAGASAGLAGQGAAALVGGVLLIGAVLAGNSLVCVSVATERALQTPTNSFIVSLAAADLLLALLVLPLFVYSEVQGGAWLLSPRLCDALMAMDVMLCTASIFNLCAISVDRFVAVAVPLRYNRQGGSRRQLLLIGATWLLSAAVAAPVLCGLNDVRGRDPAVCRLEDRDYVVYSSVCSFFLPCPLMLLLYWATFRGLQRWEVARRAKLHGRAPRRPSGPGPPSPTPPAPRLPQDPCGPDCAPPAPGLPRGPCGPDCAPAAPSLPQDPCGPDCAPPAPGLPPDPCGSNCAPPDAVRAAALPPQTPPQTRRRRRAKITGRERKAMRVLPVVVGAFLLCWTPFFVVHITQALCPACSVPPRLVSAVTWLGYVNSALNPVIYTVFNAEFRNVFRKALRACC

[1] = molecular target: Delta-type opioid receptor (Homo sapiens, UniProt P41143); format: cell membranes, HEK293, Membrane; settings: hek293; note: in other assays of this panel Not Active means under 50% inhibition at 10 µM
[2] = molecular target: T2, Neuropeptide Y receptor type 2 (Homo sapiens, UniProt P49146); format: cell membranes, Membrane; settings: kan-ts; note: in other assays of this panel Not Active means under 50% inhibition at 10 µM
T2 sequence (P49146 whole entry): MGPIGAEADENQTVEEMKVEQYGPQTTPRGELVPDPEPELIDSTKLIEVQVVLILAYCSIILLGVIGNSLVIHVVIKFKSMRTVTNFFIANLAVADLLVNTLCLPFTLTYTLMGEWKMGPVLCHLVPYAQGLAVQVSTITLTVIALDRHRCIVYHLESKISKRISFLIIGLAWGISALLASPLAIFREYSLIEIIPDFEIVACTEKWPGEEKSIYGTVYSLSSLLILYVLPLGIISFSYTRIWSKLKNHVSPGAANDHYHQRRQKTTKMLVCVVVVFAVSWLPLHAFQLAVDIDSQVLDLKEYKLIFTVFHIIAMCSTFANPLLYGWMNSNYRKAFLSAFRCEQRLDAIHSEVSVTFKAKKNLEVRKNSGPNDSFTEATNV

[3] = molecular target: Sodium-dependent noradrenaline transporter (Homo sapiens, UniProt P23975); assay: DRUGMATRIX: Norepinephrine Transporter radioligand binding (ligand: [125I] RTI-55); format: cell membranes, MDCK, Membrane; settings: Not Active = under 50% inhibition at 10 µM
Calcitonin receptor = molecular target: T3, Calcitonin receptor (Homo sapiens, UniProt P30988); format: cell membranes, Membrane; settings: t47d; note: in other assays of this panel Not Active means under 50% inhibition at 10 µM
T3 sequence (P30988 whole entry): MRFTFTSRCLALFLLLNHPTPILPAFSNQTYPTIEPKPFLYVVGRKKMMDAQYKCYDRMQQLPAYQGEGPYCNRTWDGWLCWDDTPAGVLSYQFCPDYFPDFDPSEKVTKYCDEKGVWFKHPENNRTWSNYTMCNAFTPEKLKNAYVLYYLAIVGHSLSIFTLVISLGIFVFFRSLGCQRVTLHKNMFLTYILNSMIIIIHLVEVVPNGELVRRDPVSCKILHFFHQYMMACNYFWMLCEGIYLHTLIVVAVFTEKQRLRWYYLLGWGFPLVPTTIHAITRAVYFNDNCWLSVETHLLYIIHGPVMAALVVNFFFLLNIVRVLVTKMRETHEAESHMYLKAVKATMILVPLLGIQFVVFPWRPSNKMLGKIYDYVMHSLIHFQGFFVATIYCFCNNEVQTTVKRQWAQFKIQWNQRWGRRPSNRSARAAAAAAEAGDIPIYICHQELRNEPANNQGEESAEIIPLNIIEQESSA

Adenosine receptor A3 = molecular target: T4, Adenosine receptor A3 (Homo sapiens, UniProt P0DMS8); format: cell membranes, CHO-K1, Membrane;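 note: radioligand binding assay with AB-MECA serving as the labeled ligand; in other assays of this panel Not Active means under 50% inhibition at 10 µM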
T4 sequence (P0DMS8 whole entry): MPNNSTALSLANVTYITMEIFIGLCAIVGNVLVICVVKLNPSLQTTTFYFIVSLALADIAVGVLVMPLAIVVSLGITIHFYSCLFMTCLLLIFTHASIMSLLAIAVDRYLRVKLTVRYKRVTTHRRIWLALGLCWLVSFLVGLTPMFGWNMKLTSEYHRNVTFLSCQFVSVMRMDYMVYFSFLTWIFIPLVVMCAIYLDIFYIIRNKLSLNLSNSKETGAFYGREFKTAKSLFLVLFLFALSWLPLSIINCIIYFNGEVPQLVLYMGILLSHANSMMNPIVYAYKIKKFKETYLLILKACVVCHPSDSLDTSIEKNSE

Cytochrome P450 2E1 = Cytochrome P450 2E1 (Homo sapiens, UniProt P05181); settings: bti-tn-5b1-4; note: in other assays of this panel Not Active means under 50% inhibition at 10 µM
Cytochrome P450 2E1, sequence (P05181 whole entry): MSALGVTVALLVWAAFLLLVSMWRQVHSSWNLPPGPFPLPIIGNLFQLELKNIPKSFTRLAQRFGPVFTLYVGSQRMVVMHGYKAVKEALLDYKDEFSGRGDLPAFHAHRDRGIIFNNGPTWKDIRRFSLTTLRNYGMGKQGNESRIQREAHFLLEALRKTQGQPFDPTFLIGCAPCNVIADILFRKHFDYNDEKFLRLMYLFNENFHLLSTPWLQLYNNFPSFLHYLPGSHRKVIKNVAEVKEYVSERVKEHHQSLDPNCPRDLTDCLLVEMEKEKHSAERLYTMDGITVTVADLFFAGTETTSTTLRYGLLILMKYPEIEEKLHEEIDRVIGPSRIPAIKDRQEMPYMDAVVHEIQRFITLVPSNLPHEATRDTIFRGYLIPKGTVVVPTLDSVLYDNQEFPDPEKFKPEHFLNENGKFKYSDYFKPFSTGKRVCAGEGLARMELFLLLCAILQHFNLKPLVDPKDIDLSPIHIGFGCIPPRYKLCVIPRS

Sodium-dependent noradrenaline transporter, sequence (P23975 whole entry): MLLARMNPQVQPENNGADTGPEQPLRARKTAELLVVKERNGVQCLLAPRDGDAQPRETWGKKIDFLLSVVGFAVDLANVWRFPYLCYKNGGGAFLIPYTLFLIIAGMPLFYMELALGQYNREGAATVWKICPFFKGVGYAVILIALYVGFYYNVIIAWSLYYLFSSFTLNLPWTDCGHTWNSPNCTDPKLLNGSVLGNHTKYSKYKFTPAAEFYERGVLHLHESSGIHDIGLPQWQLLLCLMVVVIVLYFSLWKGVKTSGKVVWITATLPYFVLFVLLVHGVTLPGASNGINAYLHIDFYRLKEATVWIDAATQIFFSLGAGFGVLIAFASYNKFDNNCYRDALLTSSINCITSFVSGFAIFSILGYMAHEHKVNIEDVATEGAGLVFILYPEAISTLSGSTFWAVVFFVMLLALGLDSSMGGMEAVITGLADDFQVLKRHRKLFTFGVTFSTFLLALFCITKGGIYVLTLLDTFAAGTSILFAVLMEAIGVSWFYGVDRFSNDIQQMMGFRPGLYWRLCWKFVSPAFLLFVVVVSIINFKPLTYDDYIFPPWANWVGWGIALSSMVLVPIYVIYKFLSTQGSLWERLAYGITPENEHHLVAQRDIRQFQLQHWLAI
Delta-type opioid receptor, sequence (P41143 whole entry): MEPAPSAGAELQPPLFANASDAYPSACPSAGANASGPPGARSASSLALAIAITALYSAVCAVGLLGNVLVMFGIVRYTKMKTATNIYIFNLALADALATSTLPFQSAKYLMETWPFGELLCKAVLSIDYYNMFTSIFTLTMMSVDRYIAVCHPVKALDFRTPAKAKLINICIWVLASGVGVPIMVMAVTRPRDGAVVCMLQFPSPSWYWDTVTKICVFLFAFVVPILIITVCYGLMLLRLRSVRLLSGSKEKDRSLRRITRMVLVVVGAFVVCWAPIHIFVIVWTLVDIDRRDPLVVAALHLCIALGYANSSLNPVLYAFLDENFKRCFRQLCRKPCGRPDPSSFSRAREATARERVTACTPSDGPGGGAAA

| Molecule | IC50 (D(4) dopamine receptor) | IC50 [1] | IC50 [2] | IC50 ([3]; mdck) | IC50 (Calcitonin receptor) | IC50 (Adenosine receptor A3; cho-k1) | IC50 (Cytochrome P450 2E1) | Ki (Cytochrome P450 2E1) | Ki (D(4) dopamine receptor) | Ki [1] | Ki [2] | Ki ([3]; mdck) | Ki (Calcitonin receptor) | Ki (Adenosine receptor A3; cho-k1) | IC50 ([3]; read-out: IC50) | Ki ([3]; read-out: Ki) | IC50 (Adenosine receptor A3; read-out: IC50) | Ki (Adenosine receptor A3; read-out: Ki) |
| --- | --- | --- | --- | --- | --- | --- | --- | --- | --- | --- | --- | --- | --- | --- | --- | --- | --- | --- |
| COc1ccc(Cl)cc1C(=O)NCCc1ccc(S(=O)(=O)NC(=O)NC2CCCCC2)cc1 [GLYBURIDE] | Not Active | Not Active | Not Active | Not Active | Not Active | Not Active | Not Active | Not Active | – | – | – | – | – | – | – | – | – | – |
| CHROMIC CHLORIDE | Not Active | Not Active | Not Active | Not Active | Not Active | Not Active | Not Active | Not Active | Not Active | Not Active | Not Active | Not Active | Not Active | Not Active | – | – | – | – |
| CCN1C[C@]2(COC)[C@H](O)C[C@H](OC)[C@@]34[C@@H]5C[C@@]6(O)[C@H](OC(=O)c7ccccc7)[C@@H]5[C@@](OC(C)=O)([C@@H]([C@H](OC)[C@H]23)[C@@H]14)[C@@H](O)[C@@H]6OC [ACONITINE] | Not Active | Not Active | Not Active | Not Active | Not Active | Not Active | Not Active | Not Active | – | – | – | – | – | – | – | – | – | – |
| O=C(O)CCc1nc(-c2ccccc2)c(-c2ccccc2)o1 [OXAPROZIN] | Not Active | Not Active | Not Active | Not Active | Not Active | Not Active | Not Active | Not Active | – | – | – | – | – | – | – | – | – | – |
| Cc1ccnc2c1NC(=O)c1cccnc1N2C1CC1 [NEVIRAPINE] | Not Active | Not Active | Not Active | Not Active | Not Active | Not Active | Not Active | Not Active | – | – | – | – | – | – | – | – | – | – |
| Clc1cc(Cl)c(OCC#CI)cc1Cl [HALOPROGIN] | Not Active | Not Active | Not Active | – | Not Active | – | Not Active | Not Active | – | – | – | – | – | – | 2770 nM | 2750 nM | 223 nM | 126 nM |
| COc1ccccc1OCCNCC(O)COc1cccc2[nH]c3ccccc3c12 (stereo unspecified) [CARVEDILOL] | Not Active | Not Active | Not Active | – | Not Active | Not Active | Not Active | Not Active | – | – | – | – | – | – | 538 nM | 533 nM | – | – |
| CCN1CCN(c2cc3c(cc2F)c(=O)c(C(=O)O)cn3C2CC2)CC1 [ENROFLOXACIN] | Not Active | Not Active | Not Active | Not Active | Not Active | Not Active | Not Active | Not Active | – | – | – | – | – | – | – | – | – | – |
| POVIDONE | Not Active | Not Active | Not Active | Not Active | Not Active | Not Active | Not Active | Not Active | Not Active | Not Active | Not Active | Not Active | Not Active | Not Active | – | – | – | – |
| C=C(Cl)Cl [1,1-DICHLOROETHENE] | Not Active | Not Active | Not Active | Not Active | Not Active | Not Active | Not Active | Not Active | – | – | – | – | – | – | – | – | – | – |
| CC(=O)[C@]1(O)Cc2c(O)c3c(c(O)c2[C@@H](O[C@H]2C[C@H](N)[C@H](O)[C@H](C)O2)C1)C(=O)c1ccccc1C3=O [IDARUBICIN] | Not Active | Not Active | Not Active | Not Active | Not Active | Not Active | Not Active | Not Active | – | – | – | – | – | – | – | – | – | – |
| NC(=O)CN1CCCC1=O | Not Active | Not Active | Not Active | Not Active | Not Active | Not Active | Not Active | Not Active | – | – | – | – | – | – | – | – | – | – |
| CO[C@H]1O[C@@H]2O[C@@]3(C)CC[C@H]4[C@H](C)CC[C@@H]([C@H]1C)[C@@]24OO3 | Not Active | Not Active | Not Active | Not Active | Not Active | Not Active | Not Active | Not Active | – | – | – | – | – | – | – | – | – | – |
| CC12CCC(CC1)C(C)(C)O2 [EUCALYPTOL] | Not Active | Not Active | Not Active | Not Active | Not Active | Not Active | Not Active | Not Active | – | – | – | – | – | – | – | – | – | – |
| C[N+](C)(C)CCOC(N)=O.[Cl-] [CARBACHOL] | – | Not Active | Not Active | Not Active | Not Active | Not Active | Not Active | Not Active | Not Active | – | – | – | – | – | – | – | – | – |
| NS(=O)(=O)c1cc(C(=O)O)c(NCc2ccco2)cc1Cl [FUROSEMIDE] | Not Active | Not Active | Not Active | Not Active | Not Active | Not Active | Not Active | Not Active | – | – | – | – | – | – | – | – | – | – |
| CC(C)NCC(O)COc1ccc(CC(N)=O)cc1 (stereo unspecified) [ATENOLOL] | Not Active | Not Active | Not Active | Not Active | Not Active | Not Active | Not Active | Not Active | – | – | – | – | – | – | – | – | – | – |
| Oc1ncnc2[nH]ncc12 [ALLOPURINOL] | Not Active | Not Active | Not Active | Not Active | Not Active | Not Active | Not Active | Not Active | – | – | – | – | – | – | – | – | – | – |
| NCC(CC(=O)O)c1ccc(Cl)cc1 (stereo unspecified) [BACLOFEN] | Not Active | Not Active | Not Active | Not Active | Not Active | Not Active | Not Active | Not Active | – | – | – | – | – | – | – | – | – | – |
| O=C1CN(/N=C/c2ccc([N+](=O)[O-])o2)C(=O)N1 [NITROFURANTOIN] | Not Active | Not Active | Not Active | Not Active | Not Active | Not Active | Not Active | Not Active | – | – | – | – | – | – | – | – | – | – |
| CC12CCC(CC1=O)C2(C)C (stereo unspecified) [CAMPHOR] | Not Active | Not Active | Not Active | Not Active | Not Active | Not Active | Not Active | Not Active | – | – | – | – | – | – | – | – | – | – |
| O=C(O)CNCP(=O)(O)O [GLYPHOSATE] | Not Active | Not Active | Not Active | Not Active | Not Active | Not Active | – | – | – | – | – | – | – | – | – | – | – | – |
| C=CCN1CC[C@]23c4c5ccc(O)c4O[C@H]2/C(=N/N=C2\CC[C@@]4(O)[C@H]6Cc7ccc(O)c8c7[C@@]4(CCN6CC=C)[C@H]2O8)CC[C@@]3(O)[C@H]1C5 [NALOXONAZINE] | Not Active | – | Not Active | Not Active | Not Active | Not Active | Not Active | Not Active | – | – | – | – | – | – | – | – | – | – |
